No end group written: not given here.
Assay: Plasma pharmacokinetics of ALM201 in Phase I patients (validated LC-MS/MS, Phoenix WinNonlin)
Details: human, plasma, sc; for Tmax: median; for Tmax / AUC(0-t) / Cmax: plasma LC-MS/MS; for AUC(0-t): AUC0-t; for AUC(0-t) / Cmax: Gmean (CV)
[1] = 300 mg, 300 mg SC, day 1 cycle 1, n = 3
[2] = 300 mg, 300 mg SC, day 3 cycle 1, n = 3
[3] = 300 mg, 300 mg SC, day 18 cycle 2, n = 3
[4] = 300 mg, 300 mg SC, day 18 cycle 4, n = 1
[5] = 300 mg, 300 mg SC, day 18 cycle 6, n = 1

With IRQQPRDPPTETLELEVSPDPAS [ALM201] the level at 6 h (200 mg, Plasma concentration, geometric mean (CV%), 200 mg SC, day 1 cycle 1, 6 h after dosing, n = 4, LC-MS/MS) was 518 ng/mL, the level at 0.5 h (200 mg, Plasma concentration, geometric mean (CV%), 200 mg SC, day 3 cycle 1, 0.5 h after dosing, n = 4, LC-MS/MS) was 1090 ng/mL and the level at 1 h (200 mg, Plasma concentration, geometric mean (CV%), 200 mg SC, day 3 cycle 1, 1 h after dosing, n = 3, LC-MS/MS) was 1410 ng/mL. For the same sequence, the level at 1.5 h (200 mg, Plasma concentration, geometric mean (CV%), 200 mg SC, day 3 cycle 1, 1.5 h after dosing, n = 4, LC-MS/MS) was 1320 ng/mL, the level at 2 h (200 mg, Plasma concentration, geometric mean (CV%), 200 mg SC, day 3 cycle 1, 2 h after dosing, n = 4, LC-MS/MS) was 1540 ng/mL and the level at 3.5 h (200 mg, Plasma concentration, geometric mean (CV%), 200 mg SC, day 3 cycle 1, 3.5 h after dosing, n = 4, LC-MS/MS) was 1250 ng/mL. The level at 5 h (200 mg, Plasma concentration, geometric mean (CV%), 200 mg SC, day 3 cycle 1, 5 h after dosing, n = 4, LC-MS/MS) was 958 ng/mL, the level at 0.5 h (200 mg, Plasma concentration, geometric mean (CV%), 200 mg SC, day 18 cycle 1, 0.5 h after dosing, n = 3, LC-MS/MS) was 811 ng/mL and the level at 1 h (200 mg, Plasma concentration, geometric mean (CV%), 200 mg SC, day 18 cycle 1, 1 h after dosing, n = 3, LC-MS/MS) was 1260 ng/mL. The level at 1.5 h (200 mg, Plasma concentration, geometric mean (CV%), 200 mg SC, day 18 cycle 1, 1.5 h after dosing, n = 2 values (CV NC), LC-MS/MS) was 1670 ng/mL, the level at 2 h (200 mg, Plasma concentration, geometric mean (CV%), 200 mg SC, day 18 cycle 1, 2 h after dosing, n = 2 values (CV NC), LC-MS/MS) was 1580 ng/mL and the level at 3.5 h (200 mg, Plasma concentration, geometric mean (CV%), 200 mg SC, day 18 cycle 1, 3.5 h after dosing, n = 3, LC-MS/MS) was 1130 ng/mL. The level at 5 h (200 mg, Plasma concentration, geometric mean (CV%), 200 mg SC, day 18 cycle 1, 5 h after dosing, n = 3, LC-MS/MS) was 890 ng/mL, the level at 0.5 h (200 mg, Plasma concentration, geometric mean (CV%), 200 mg SC, day 18 cycle 2, 0.5 h after dosing, n = 2, LC-MS/MS) was 1210 ng/mL and the level at 1 h (200 mg, Plasma concentration, geometric mean (CV%), 200 mg SC, day 18 cycle 2, 1 h after dosing, n = 2, LC-MS/MS) was 1470 ng/mL. The level at 1.5 h (200 mg, Plasma concentration, geometric mean (CV%), 200 mg SC, day 18 cycle 2, 1.5 h after dosing, n = 2, LC-MS/MS) was 1890 ng/mL, the level at 2 h (200 mg, Plasma concentration, geometric mean (CV%), 200 mg SC, day 18 cycle 2, 2 h after dosing, n = 2, LC-MS/MS) was 1360 ng/mL and the level at 3.5 h (200 mg, Plasma concentration, geometric mean (CV%), 200 mg SC, day 18 cycle 2, 3.5 h after dosing, n = 2, LC-MS/MS) was 911 ng/mL. For the same sequence, the level at 5 h (200 mg, Plasma concentration, geometric mean (CV%), 200 mg SC, day 18 cycle 2, 5 h after dosing, n = 2, LC-MS/MS) was 690 ng/mL, the level at 0.5 h (200 mg, Plasma concentration, geometric mean (CV%), 200 mg SC, day 18 cycle 4, 0.5 h after dosing, n = 2, LC-MS/MS) was 1080 ng/mL and the level at 1 h (200 mg, Plasma concentration, geometric mean (CV%), 200 mg SC, day 18 cycle 4, 1 h after dosing, n = 2, LC-MS/MS) was 1410 ng/mL. It also gave a level at 1.5 h (200 mg, Plasma concentration, geometric mean (CV%), 200 mg SC, day 18 cycle 4, 1.5 h after dosing, n = 2, LC-MS/MS) of 1150 ng/mL, a level at 2 h (200 mg, Plasma concentration, geometric mean (CV%), 200 mg SC, day 18 cycle 4, 2 h after dosing, n = 2, LC-MS/MS) of 1500 ng/mL and a level at 3.5 h (200 mg, Plasma concentration, geometric mean (CV%), 200 mg SC, day 18 cycle 4, 3.5 h after dosing, n = 2, LC-MS/MS) of 1310 ng/mL. It also gave a level at 5 h (200 mg, Plasma concentration, geometric mean (CV%), 200 mg SC, day 18 cycle 4, 5 h after dosing, n = 2, LC-MS/MS) of 975 ng/mL, a Tmax (200 mg, 200 mg SC, day 1 cycle 1, n = 4) of 2.5 h and a Tmax (200 mg, 200 mg SC, day 3 cycle 1, n = 4) of 2 h. It also gave a Tmax (200 mg, 200 mg SC, day 18 cycle 1, n = 3) of 2.03 h, a Tmax (200 mg, 200 mg SC, day 18 cycle 2, n = 2) of 1.54 h and a Tmax (200 mg, 200 mg SC, day 18 cycle 4, n = 2) of 1.57 h. For the same sequence, the AUC(0-t) [1] was 11900 ng·h/mL, the AUC(0-t) [2] was 12500 ng·h/mL and the AUC(0-t) [3] was 10400 ng·h/mL. It also gave an AUC(0-t) [4] of 8600 ng·h/mL, an AUC(0-t) [5] of 26700 ng·h/mL and a Cmax [1] of 2550 ng/mL. For the same sequence, the Cmax [2] was 2690 ng/mL, the Cmax (300 mg, 300 mg SC, day 18 cycle 1, n = 3) was 2880 ng/mL and the Cmax [3] was 2780 ng/mL. For the same sequence, the Cmax [4] was 2140 ng/mL, the Cmax [5] was 6830 ng/mL and the level at 0.25 h (300 mg, Plasma concentration, geometric mean (CV%), 300 mg SC, day 1 cycle 1, 0.25 h after dosing, n = 3, LC-MS/MS) was 1050 ng/mL. For the same sequence, the level at 0.75 h (300 mg, Plasma concentration, geometric mean (CV%), 300 mg SC, day 1 cycle 1, 0.75 h after dosing, n = 3, LC-MS/MS) was 1970 ng/mL and the level at 1.5 h (300 mg, Plasma concentration, geometric mean (CV%), 300 mg SC, day 1 cycle 1, 1.5 h after dosing, n = 3, LC-MS/MS) was 2250 ng/mL.
